Measured values taken from the RepoRT retention time repository (doi:10.1021/acs.analchem.1c00972).

What was measured:
Settings in all cases: stereoisomer not certain
[1] = RP, Phenomenex Synergi Polar-RP, 100 × 3 mm, 2.5 µm, 40 °C, 0.4 mL/min, estimated dead time 1.1 min; A: water + 1 mM ammonium fluoride; B: methanol + 1 mM ammonium fluoride; C: acetonitrile; D: 50% isopropanol + 50% acetone; gradient (min/%B/%C/%D) 0/5/0/0 2/5/0/0 8/95/0/0 12/80/15/0 19/25/70/0 19.5/0/25/70 21.5/0/25/70 22.5/0/25/0 23/5/0/0
[2] = RP, Waters ACQUITY UPLC BEH C18, 100 × 1 mm, 1.7 µm, 50 °C, 0.3 mL/min, estimated dead time 0.17 min; A: water + 0.1% formic acid + 20 mM ammonium formate; B: methanol + 0.1% formic acid + 20 mM ammonium formate; gradient (min/%B) 0/0 15/100 21/100 22/0 30/0
[3] = RP, Waters ACQUITY UPLC BEH C18, 100 × 1 mm, 1.7 µm, 50 °C, 0.3 mL/min, estimated dead time 0.17 min; A: water + 10 mM ammonium bicarbonate; B: 10% water + 90% methanol + 10 mM ammonium bicarbonate; gradient (min/%B) 0/0 15/100 21/100 22/0 30/0

Compound	LC retention time [1] [min]	LC retention time [2] [min]	LC retention time [3] [min]
O=C(O)Cc1ccc(S(=O)(=O)O)cc1 [(4-Sulfophenyl)acetic acid]	1.82		
Cc1cccc(C)c1N(Cn1cccn1)C(=O)CS(=O)(=O)O [Metazachlor ESA]	7.83		
O=C(c1ccc(OCCN2CCCCC2)cc1)c1c(-c2ccc(O)cc2)sc2cc(O)ccc12 [Raloxifene]	16.2		
CC(C)c1c(C(=O)Nc2ccccc2)c(-c2ccccc2)c(-c2ccc(F)cc2)n1CCC(O)CC(O)CC(=O)O (stereo not drawn) [Atorvastatin]	10.4		
Cc1cccc(Nc2ccccc2C(=O)O)c1C [Mefenamic acid]	10.6		
Cc1cc(Cl)ccc1OCC(=O)O [MCPA]	8.16		
COCCN(C(=O)CS(=O)(=O)O)c1c(C)cccc1C [Dimethachlor ESA]	7.88		
Cc1cc(Cl)ccc1OC(C)C(=O)O (stereo not drawn) [Mecoprop]	8.57		
COc1cc(O)c(C(=O)c2ccccc2)cc1S(=O)(=O)O [Benzophenone-4]	8.32		
Oc1cc(Cl)c(Cl)c(Cl)c1 [345-trichlorophenol]	10.8		
O=c1c(-c2ccc(O)cc2)coc2cc(O)cc(O)c12 [Genistein]	10.3		
COc1c(C)c2c(c(O)c1CC=C(C)CCC(=O)O)C(=O)OC2 [Mycophenolic acid]	10.3		
O=S(=O)(O)CCC(F)(F)C(F)(F)C(F)(F)C(F)(F)C(F)(F)C(F)(F)F [6-2fluorotelomer sulfonic acid]	8.97		
Cc1ccc(-c2cc(C(F)(F)F)nn2-c2ccc(S(N)(=O)=O)cc2)cc1 [Celecoxib]	11.1		
CCCCc1nc(Cl)c(CO)n1Cc1ccc(-c2ccccc2-c2nn[nH]n2)cc1 [Losartan]	9.49		
COCCN(C(=O)C(=O)O)c1c(C)cccc1C [Dimethachlor OA]	7.5		
CCCC1CC(C(=O)NC(C(C)O)C2OC(SC)C(O)C(O)C2O)N(C)C1 (stereo not drawn) [Lincomycin]	9.98		
O=S(=O)(O)c1ccc2nc(-c3ccccc3)[nH]c2c1 [Phenylbenzimidazole sulfonic acid]	7.44		
O=S(=O)(O)c1ccc2ccc(S(=O)(=O)O)cc2c1 [27-Naphthalenedisulfonic acid]	1.65		
O=[N+]([O-])c1ccc(O)c([N+](=O)[O-])c1 [24-Dinitrophenol]	7.62		
O=C(Nc1ccc(Cl)cc1)Nc1ccc(Cl)c(Cl)c1 [Triclocarban]	11.3		
Oc1ccc(Cl)cc1Cl [24-Dichlorophenol]	8.49		
CC(O)(CS(=O)(=O)c1ccc(F)cc1)C(=O)Nc1ccc(C#N)c(C(F)(F)F)c1 (stereo not drawn) [Bicalutamide]	10.7		

Compound	LC retention time [1] [min]	LC retention time [2] [min]	LC retention time [3] [min]
CCCN(CCC)c1c([N+](=O)[O-])cc(S(N)(=O)=O)cc1[N+](=O)[O-] [Oryzalin]	11.2		
CC(C)(Oc1ccc(Cl)cc1)C(=O)O [Clofibric acid]	8.57		
O=c1c(-c2ccc(O)cc2)coc2cc(O)ccc12 [Daidzein]	9.89		
OCC1OC(OC2(CCl)OC(CCl)C(O)C2O)C(O)C(O)C1Cl (stereo not drawn) [Sucralose]	8		
O=c1cc[nH]c(=S)[nH]1 [2-thiouracil]	2.53		
O=C(NC(=O)c1c(F)cccc1F)Nc1ccc(Oc2ccc(C(F)(F)F)cc2Cl)cc1F [Flufenoxuron]	11.9		
CS(=O)(=O)c1ccc(C(=O)C2C(=O)CCCC2=O)c(Cl)c1 [Sulcotrione]	7.69		
CC(=O)OC1CCN2CC=C(COC(=O)C(O)(C(C)C)C(C)O)C12 (stereo not drawn) [7-Acetyllycopsamine]		8.13	11.8
CC12CCC3C(CCC4C(O)C(=O)C=CC43C)C1CCC2=O (stereo not drawn) [4- Hydroxyandrostenedione]		11.7	11.9
CC1C(C)(C)C2=C(C(=O)CCC2)C1(C)C (stereo not drawn) [Cashmeran]		16.2	16.6
C=C1CCC2C(C=C(C)C(=O)C3(O)CC(C)C(O)C3C1O)C2(C)C (stereo not drawn) [Lathyrol]		14.7	15
Cc1ccc(NS(=O)(=O)N(C)C)cc1 [DMST]		12	12.1
O=C1CC2(CCCCC2)CN1 [Gabapentin-Lactam]		11.3	11.4
CC(=O)CCCCn1c(=O)c2c(ncn2C)n(C)c1=O [Pentoxifylline]		9.87	9.98
CNC(=O)ON=CC(C)(C)SC [Aldicarb]		16.1	16.4
Oc1cc(-c2ccc(Cl)cc2)ccc1Cl [3-Hydroxy-4,4'-dichlorobiphenyl]		15.9	16
COC(=O)CC(O)(CCCC(C)(C)O)C(=O)OC1C(OC)=CC23CCCN2CCc2cc4c(cc2C13)OCO4 (stereo not drawn) [Homoharringtonine]		9.4	14
CN1COCN(Cc2cnc(Cl)s2)C1=N		6.25	6.91
NCC1(CC(=O)O)CCCCC1 [Gabapentin]		7.38	6.17
CCc1cnc(C2=NC(C)(C(C)C)C(=O)N2)c(C(=O)O)c1 (stereo not drawn) [Imazethapyr]		11.2	8
CC(C)CCCCCCOC(=O)c1ccccc1C(=O)OCCCCCCC(C)C [Di-iso-nonylphthalate]		19.7	20.5
C=C1CC(=CC)C(=O)OC2CC[N+]3([O-])CC=C(COC(=O)C1(C)O)C23 (stereo not drawn) [Seneciphylline N-oxide]		8.11	8.91
O=c1cccc2n1CC1CNCC2C1 (stereo not drawn) [Cytisin]		2.31	7.53

Compound	LC retention time [1] [min]	LC retention time [2] [min]	LC retention time [3] [min]
CCS(=O)(=O)c1nnc(N(C)C(=O)NC)s1 [Ethidimuron]		8.76	8.81
O=C1Nc2ccc(Cl)cc2C(c2ccccc2Cl)=NC1O (stereo not drawn) [Lorazepam]		13.2	13.5
Fc1ccc(C2CCNCC2COc2ccc3c(c2)OCO3)cc1 (stereo not drawn) [Paroxetine]		12.8	15
CCCCCCCCCCCC(=O)N(CCO)CCO [Lauryl diethanolamide]		16.4	16.8
COc1ccc(C(=CC(=O)N2CCOCC2)c2ccc(Cl)cc2)cc1OC [Dimethomorph]		14.4	14.7
Cc1ccc(NC(=O)c2ccc(CN3CCN(C)CC3)cc2)cc1Nc1nccc(-c2cccnc2)n1 [Imatinib]		11.2	13.9
Nc1nc(=O)n(C2CSC(CO)O2)cc1F (stereo not drawn) [Emtricitabine]		5.75	5.99
NC(=O)c1c(Cl)cccc1Cl [2,6-Dichlorobenzamide]		7.57	7.59
CCC1OC(=O)C(C)C(OC2CC(C)(OC)C(O)C(C)O2)C(C)C(OC2OC(C)CC(N(C)C)C2O)C(C)(OC)CC(C)C(=O)C(C)C(O)C1(C)O (stereo not drawn) [Clarithromycin]		14.1	16.6
O=C(O)c1ccccc1O [Salicylic acid]		9.72	4.78
CCC(=O)OC(Cc1ccccc1)(c1ccccc1)C(C)CN(C)C (stereo not drawn) [Propoxyphene]		12.5	16.8
CC1CC2C3CC(F)C4=CC(=O)C=CC4(C)C3C(O)CC2(C)C1(O)C(=O)CO (stereo not drawn) [Paramethasone]		13.2	13.5
CC1(C)OC2CC3C4CCC5=CC(=O)C=CC5(C)C4C(O)CC3(C)C2(C(=O)CO)O1 (stereo not drawn) [Desonide]		13.6	13.9
COC(=O)C1=COC(C)C2CN3CCc4c([nH]c5ccccc45)C3CC12 (stereo not drawn) [Ajmalicine]		10.1	15.5
CC(C)C(N)C(=O)OCC(CO)OCn1cnc2c(=O)[nH]c(N)nc21 (stereo not drawn) [Valganciclovir]		5.17	7.16
CC(C1CC1)C(O)(Cn1cncn1)c1ccc(Cl)cc1 (stereo not drawn) [Cyproconazole]		14.5	15
CC(=O)OC1(C(C)=O)CCC2C3C=C(C)C4=CC(=O)CCC4(C)C3CCC21C (stereo not drawn) [Megestrol-17-acetate]		15.3	15.6
CCCCNC(=O)OCC#CI [3-Iodopropynyl butylcarbamate]		12.9	13.2
CCC(C)C(=O)OC1CC(C)C=C2C=CC(C)C(CCC3CC(O)CC(=O)O3)C21 (stereo not drawn) [Lovastatin]		16.8	17.2
C=CCOC(=O)C(C)(C)OC(=O)c1cc(-n2c(=O)cc(C(F)(F)F)n(C)c2=O)ccc1Cl [Butafenacil]		14.8	15.1
CCN(CC)CCNC(=O)c1cc(S(C)(=O)=O)ccc1OC [Tiapride]		6.49	10.8
CSC(=O)c1cccc2nnsc12 [Acibenzolar-S-methyl]		13.7	14
CCCCOC(=O)C(C)Oc1ccc(Oc2ccc(C(F)(F)F)cn2)cc1 (stereo not drawn) [Fluazifop-butyl]		16.7	17.1
